Here are results for 25 compounds from ChEMBL document CHEMBL2331290, “4-Hydroxypyridazin-3(2H)-one derivatives as novel D-amino acid oxidase inhibitors” (J Med Chem, 2013).

The structures appear in SMILES notation.

A short description of series [1]: Effective permeability of the compound at pH 6.5 after 2 hrs by PAMPA. The format is ADME. The conditions noted are these: read-out: Peff. (In general: In PAMPA a lipid-coated filter parts donor from acceptor wells.)
Series [2] has as its target D-amino-acid oxidase (Rattus norvegicus, UniProt O35078).
Description: Inhibition of rat full length DAAO overexpressed in HEK293 cells after 30 mins by plate reader analysis
Series [3] has as its target D-amino-acid oxidase (Mus musculus, UniProt P18894).
Description: Inhibition of mouse full length DAAO overexpressed in HEK293 cells after 30 mins by plate reader analysis
The target in series [4] is T1, D-amino-acid oxidase (Homo sapiens, UniProt P14920).
T1 sequence (P14920 whole entry): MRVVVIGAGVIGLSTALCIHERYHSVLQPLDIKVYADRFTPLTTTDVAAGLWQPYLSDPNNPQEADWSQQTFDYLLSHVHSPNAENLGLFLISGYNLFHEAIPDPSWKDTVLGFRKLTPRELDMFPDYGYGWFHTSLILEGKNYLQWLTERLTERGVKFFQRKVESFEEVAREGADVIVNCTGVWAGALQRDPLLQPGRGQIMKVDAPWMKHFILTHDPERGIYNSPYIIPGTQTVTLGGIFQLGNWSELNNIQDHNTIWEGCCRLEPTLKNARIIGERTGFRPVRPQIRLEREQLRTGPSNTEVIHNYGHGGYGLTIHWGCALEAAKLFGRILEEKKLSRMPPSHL
Description: Inhibition of DAAO (unknown origin) by cell based assay
Series [5] concerns the target T1, D-amino-acid oxidase. The series is described as follows: Inhibition of human recombinant DAAO after 30 mins by plate reader analysis.
Series [6] addresses T1, D-amino-acid oxidase. The source holds these as a separate data set.
Description: Inhibition of human full length DAAO overexpressed in HEK293 cells after 30 mins by plate reader analysis
Series [7] concerns HEK293. The series is described as follows: Cytotoxicity against HEK293 cells overexpressing human full length DAAO by Alamar Blue assay. The format is cell-based.
The nature of series [8]: Drug uptake in ddY mouse brain at 30 mg/kg, po after 30 mins by LC-MS/MS analysis. In kind it is ADME, organism-based. Further details: dose 30 mg/kg, route oral. The conditions noted are these: read-out: Drug uptake.
Series [9] is described as follows: Plasma concentration in ddY mouse at 30 mg/kg, po after 30 mins by LC-MS/MS analysis. Further details: dose 30 mg/kg, route oral. The format is ADME, organism-based.

D-amino-acid oxidase (Rattus norvegicus, UniProt O35078), sequence (O35078 whole entry): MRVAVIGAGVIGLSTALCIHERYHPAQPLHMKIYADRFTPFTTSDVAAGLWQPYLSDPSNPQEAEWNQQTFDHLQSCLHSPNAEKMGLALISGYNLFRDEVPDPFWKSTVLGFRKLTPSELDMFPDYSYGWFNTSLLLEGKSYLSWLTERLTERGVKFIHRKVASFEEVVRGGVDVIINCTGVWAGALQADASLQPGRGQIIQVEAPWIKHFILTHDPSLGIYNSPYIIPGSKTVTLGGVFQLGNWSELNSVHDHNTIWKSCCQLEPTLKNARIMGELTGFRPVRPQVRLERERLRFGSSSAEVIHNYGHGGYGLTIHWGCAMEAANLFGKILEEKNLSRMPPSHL
D-amino-acid oxidase (Mus musculus, UniProt P18894), sequence (P18894 whole entry): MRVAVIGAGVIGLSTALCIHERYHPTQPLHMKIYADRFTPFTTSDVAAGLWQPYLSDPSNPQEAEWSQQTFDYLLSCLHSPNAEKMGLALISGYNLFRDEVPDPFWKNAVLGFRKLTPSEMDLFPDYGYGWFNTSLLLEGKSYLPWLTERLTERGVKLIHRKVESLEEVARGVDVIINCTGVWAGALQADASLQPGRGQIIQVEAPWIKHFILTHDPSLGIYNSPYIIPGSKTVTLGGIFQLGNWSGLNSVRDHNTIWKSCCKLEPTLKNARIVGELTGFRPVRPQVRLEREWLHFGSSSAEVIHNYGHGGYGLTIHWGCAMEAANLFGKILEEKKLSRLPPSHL

With `O=c1[nH]c2ccccc2cc1O`, in [1], the Papp at 2 h was determined as 18.2 ×10⁻⁶ cm/s.
By IC50 is commonly meant the midpoint of a concentration-inhibition curve. Regarding `O=c1[nH]nc(CCc2ccccc2)cc1O`, the IC50 in series [2] came out at 4.6 nM; in series [3], 3.3 nM.
In the case of `CC(c1ccccc1)c1cc(O)c(=O)[nH]n1` (stereo not drawn), the figures for the half-inhibitory concentration (IC50) in series [2] and in [3] were 3.1 nM and 2.8 nM, respectively.
For `O=C(O)c1cc2sccc2[nH]1`, the half-maximal inhibitory concentration (IC50) in [4] came out at 147 nM; in [5] it was 1.4 nM. For the same compound, in series [1], the Papp at 2 h was determined as 0.8 ×10⁻⁶ cm/s.
Consider `O=c1[nH]nc(C2CCCCC2)cc1O`, for which the IC50 in series [2] is more than 1000 nM; in series [6], more than 1000 nM; in series [3] it was more than 1000 nM; in [5] it was 300 nM.
As to `Cc1c[nH]c(=O)c(O)c1`, in series [7], the Activity entry is listed as “Toxic”. For the same compound, the IC50 in series [5] was 140 nM.
As to `O=c1[nH]nc(CCC2CCCCC2)cc1O`, the IC50 in series [2] turned out to be 8.2 nM; in [3] it was 3.2 nM.
As for `Oc1cccnc1O`, the IC50 in series [5] is 1150 nM.
For `O=c1[nH]nc(CCCc2ccccc2)cc1O`, the IC50 came out at 1220 nM in [2] and 426 nM in series [3].
As for `O=c1[nH]cc(CCc2ccccc2)cc1O`, the Activity result in [7] is listed as “Toxic”. Also, the Papp at 2 h in series [1] was more than 30 ×10⁻⁶ cm/s.
As to `O=c1[nH]nc(CCc2ccccc2F)cc1O`, the values for the IC50 in series [2] and in series [3] were 4.9 nM and 3.6 nM, respectively.
For `O=c1[nH]cc(Cl)cc1O`, the results for the IC50 in [4] and in series [5] were 930 nM and 47 nM, respectively. Also, the Papp at 2 h in series [1] amounted to 6.4 ×10⁻⁶ cm/s.
For the compound `COc1cc(CCc2cc(O)c(=O)[nH]n2)cc(OC)c1`, the IC50 in series [2] is 19 nM; in series [3], 12 nM.
With `O=c1[nH]nc(CCc2cc(C(F)(F)F)cc(C(F)(F)F)c2)cc1O`, the IC50 in series [2] is 1900 nM; in series [3], 490 nM.
In the case of `COc1cccc(CCc2cc(O)c(=O)[nH]n2)c1`, the IC50 was determined as 5.6 nM in [2] and 4.4 nM in [3].
In the case of `O=c1[nH]nc(CCc2ccc(F)cc2)cc1O`, the IC50 in [2] turned out to be 2.2 nM; in series [3], 2.5 nM.
On the same counts, the results for `COc1ccc(CCc2cc(O)c(=O)[nH]n2)cc1` are 3.8 nM and 3.6 nM.
For `CC(C)(C)CCc1cc(O)c(=O)[nH]n1`, the half-maximal inhibitory concentration (IC50) in series [2] is more than 1000 nM; in series [6] it was more than 1000 nM; in series [3] it was more than 1000 nM; in series [5], 670 nM.
As to `O=c1[nH]nc(CCc2ccc(Cl)cc2)cc1O`, the IC50 is 2.4 nM in series [2] and 1.9 nM in series [3].
Regarding `O=c1[nH]nc(/C=C/c2ccc(Cl)cc2)cc1O`, the IC50 in series [2] was determined as 470 nM; in series [6], 570 nM; in series [3], 240 nM; in [5], 120 nM.
For `O=c1[nH]nc(CCc2cc(F)cc(F)c2)cc1O`, the figures for the IC50 in series [2] and in series [3] were 16 nM and 4.4 nM, respectively. For the same compound, the figures for the concentration at 0.5 h in series [8] and in [9] were 460 ng/mL and 6540 ng/mL, respectively.
For the compound `O=c1cc(COc2ccccc2)[nH]nc1O`, the results for the IC50 in series [2] and in [3] were 6.5 nM and 4.6 nM, respectively.
`O=c1[nH]nc(CCc2ccc(C(F)(F)F)cc2)cc1O` [LUVADAXISTAT]: the IC50 in [2] was found to be 5 nM; in series [3], 5.9 nM.
On to `O=c1[nH]nc(CCc2ccccc2C(F)(F)F)cc1O`, for which the IC50 was found to be 41 nM in series [2] and 7.1 nM in series [3].
As for `O=c1[nH]nc(CCc2cccc(F)c2)cc1O`, the values for the 50% inhibitory concentration (IC50) in [2] and in series [3] were 2.6 nM and 1.9 nM, respectively.
